US20250221979A1, “NOVEL HETEROCYCLIC COMPOUND” (SHOUYAO HOLDINGS (BEIJING) CO., LTD., priority 2022, published 2025)

molecular target: human MAT2A enzyme (Homo sapiens (Human), UniProt P31153); assay: In vitro enzymatic inhibition activity assay on MAT2A (PiColorLock phosphate detection); type: biochemical; conditions: purified human MAT2A 10 nM, ATP 50 μM, L-methionine 100 μM, 6 h at 23° C.; read-out: MAT2A inhibitory activity IC50
In short: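 IC50 came from an 8-point, 10-fold compound series that reduced phosphate release, measured by absorbance at 630 nm. Reactions ran 6 h at 23 °C with 10 nM human MAT2A, 50 μM ATP and 100 μM L-methionine in pH 7.5 Tris buffer containing Mg2+.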

human MAT2A enzyme, sequence (P31153 whole entry): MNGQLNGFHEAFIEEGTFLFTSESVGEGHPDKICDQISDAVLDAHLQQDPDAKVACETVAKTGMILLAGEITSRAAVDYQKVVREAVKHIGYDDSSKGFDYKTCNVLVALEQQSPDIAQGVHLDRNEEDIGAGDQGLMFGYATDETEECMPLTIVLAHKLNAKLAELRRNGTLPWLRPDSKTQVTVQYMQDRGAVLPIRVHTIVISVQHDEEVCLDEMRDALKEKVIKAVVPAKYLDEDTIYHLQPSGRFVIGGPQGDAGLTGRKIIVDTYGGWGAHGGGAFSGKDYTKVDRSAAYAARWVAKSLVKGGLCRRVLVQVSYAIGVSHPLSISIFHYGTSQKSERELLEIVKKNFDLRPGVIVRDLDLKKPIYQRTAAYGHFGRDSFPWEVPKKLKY

Question: For `COC(=O)c1c(N)c2ccc(Br)nc2n(-c2ccc(Cl)c3cnccc23)c1=O` [Example 289, methyl 4-amino-1-(8-chloroisoquinolin-5-yl)-7-bromo-2-oxo-1,2-dihydro-1,8-naphthyridine-3-carboxylate], which IC50 is on record?
Answer: Its IC50 is 1.04 nM.

Question: Which IC50 does the source give for `COC(=O)c1c(N)c2ccc(Br)nc2n(-c2cccc3c(C)nccc23)c1=O` [Example 290, methyl 4-amino-1-(1-methylisoquinolin-5-yl)-7-bromo-2-oxo-1,2-dihydro-1,8-naphthyridine-3-carboxylate] here?
Answer: Its IC50 is 0.79 nM.

Question: How did the IC50 turn out when `COC(=O)c1c(N)c2ccc(Br)cc2n(-c2ccc(C(C)O)nc2)c1=O` (centres unmarked) [Example 291, methyl 4-amino-1-(6-(1-hydroxyethyl)pyridin-3-yl)-2-oxo-7-bromo-1,2-dihydroquinoline-3-carboxylate] was run?
Answer: Its IC50 is 2.18 nM.

Question: `COC(=O)c1c(N)c2ccc(I)cc2n(-c2ccc(C)nc2C)c1=O` [Example 294, methyl 4-amino-1-(2,6-dimethylpyridin-3-yl)-2-oxo-7-iodo-1,2-dihydroquinoline-3-carboxylate] was tested. Which IC50 did it give?
Answer: Its IC50 is 1.08 nM.

Question: How did the IC50 turn out when `COC(=O)c1c(N)c2ccc(Br)nc2n(-c2ccc(N)cc2Cl)c1=O` [Example 295, methyl 4-amino-1-(4-amino-2-chlorophenyl)-2-oxo-7-bromo-1,2-dihydro-1,8-naphthyridine-3-carboxylate] was run?
Answer: Its IC50 is 0.89 nM.

Question: `COC(=O)c1c(N)c2ccc(Br)nc2n(-c2cnc(Cl)cc2C)c1=O` [Example 296, methyl 4-amino-7-bromo-1-(6-chloro-4-methylpyridin-3-yl)-2-oxo-1,2-dihydro-1,8-naphthyridine-3-carboxylate] was tested. Which IC50 did it give?
Answer: Its IC50 is 2 nM.

Question: Which IC50 does the source give for `COC(=O)c1c(N)c2ccc(Br)nc2n(-c2ccc(Cl)nc2)c1=O` [Example 297, methyl 4-amino-7-bromo-1-(6-chloropyridin-3-yl)-2-oxo-1,2-dihydro-1,8-naphthyridine-3-carboxylate] here?
Answer: Its IC50 is 2.04 nM.

Question: How did the IC50 turn out when `COC(=O)c1c(N)c2ccc(I)cc2n(-c2ccc(C(C)O)cc2)c1=O` (centres unmarked) [Example 298, methyl 4-amino-1-(4-(1-hydroxyethyl)phenyl)-2-oxo-7-iodo-1,2-dihydroquinoline-3-carboxylate] was run?
Answer: Its IC50 is 0.43 nM.

Question: Which IC50 does the source give for `COC(=O)c1c(N)c2ccc(C(F)(F)F)nc2n(-c2ccc(C(C)O)cc2)c1=O` (centres unmarked) [Example 303, methyl 4-amino-1-(4-(1-hydroxyethyl)phenyl)-2-oxo-7-(trifluoromethyl)-1,2-dihydro-1,8-naphthyridine-3-carboxylate] here?
Answer: Its IC50 is 0.92 nM.

Question: `COC(=O)c1c(N)c2ccc(Br)nc2n(-c2ccc(N)cc2C)c1=O` [Example 304, methyl 4-amino-1-(4-amino-2-methylphenyl)-7-bromo-2-oxo-1,2-dihydro-1,8-naphthyridine-3-carboxylate] was tested. Which IC50 did it give?
Answer: The IC50 was 2.28 nM.

Question: For `COC(=O)c1c(N)c2ccc(I)cc2n(-c2ccc(C(C)O)nc2)c1=O` (centres unmarked) [Example 307, methyl 4-amino-1-(6-(1-hydroxyethyl)pyridin-3-yl)-2-oxo-7-iodo-1,2-dihydroquinoline-3-carboxylate], which IC50 is on record?
Answer: The IC50 was 1.14 nM.

Question: For `COC(=O)c1c(N)c2ccc(C(F)(F)F)nc2n(-c2ccc(N)nc2C)c1=O` [Example 308, methyl 4-amino-1-(6-amino-2-methylpyridin-3-yl)-2-oxo-7-(trifluoromethyl)-1,2-dihydro-1,8-naphthyridine-3-carboxylate], which IC50 is on record?
Answer: The IC50 was 2.42 nM.

Question: How did the IC50 turn out when `COC(=O)c1c(N)c2ccc(C(F)(F)F)nc2n(-c2ccc3nccn3c2)c1=O` [Example 309, methyl 4-amino-1-(imidazo[3,2-a]pyridin-6-yl)-2-oxo-7-(trifluoromethyl)-1,2-dihydro-1,8-naphthyridine-3-carboxylate] was run?
Answer: Its IC50 is 2.02 nM.

Question: How did the IC50 turn out when `[2H]C([2H])([2H])OC(=O)c1c(N)c2ccc(C(F)(F)F)nc2n(-c2ccc(C(C)O)cc2)c1=O` (centres unmarked) [Example 310, methyl-d3 4-amino-1-(4-(1-hydroxyethyl)phenyl)-2-oxo-7-(trifluoromethyl)-1,2-dihydro-1,8-naphthyridine-3-carboxylate] was run?
Answer: The IC50 was 0.74 nM.

Question: With `[2H]C([2H])([2H])OC(=O)c1c(N)c2ccc(Br)cc2n(-c2ccc(C(C)O)cc2)c1=O` (centres unmarked) [Example 311, methyl-d3 4-amino-7-bromo-1-(4-(1-hydroxyethyl)phenyl)-2-oxo-1,2-dihydroquinoline-3-carboxylate] as the molecule, how does the IC50 read?
Answer: Its IC50 is 0.6 nM.

Question: For `COC(=O)c1c(N)c2ccc(C(F)(F)F)nc2n(-c2cccc3c(Cl)nccc23)c1=O` [Example 318, methyl 4-amino-1-(1-chloroisoquinolin-5-yl)-2-oxo-7-(trifluoromethyl)-1,2-dihydro-1,8-naphthyridine-3-carboxylate], which IC50 is on record?
Answer: Its IC50 is 2.34 nM.

Question: For `COC(=O)c1c(N)c2ccc(C(F)(F)F)nc2n(-c2cccc3c(C)nccc23)c1=O` [Example 319, methyl 4-amino-1-(1-methylisoquinolin-5-yl)-2-oxo-7-(trifluoromethyl)-1,2-dihydro-1,8-naphthyridine-3-carboxylate], which IC50 is on record?
Answer: The IC50 was 1.2 nM.

Question: `COC(=O)c1c(N)c2ccc(Cl)cc2n(-c2ccc(N)cc2)c1=O` [Example 322, methyl 4-amino-7-chloro-1-(4-aminophenyl)-2-oxo-1,2-dihydroquinoline-3-carboxylate] was tested. Which IC50 did it give?
Answer: Its IC50 is 1.84 nM.

Question: `COC(=O)c1c(N)c2ccc(C(F)F)cc2n(-c2ccc(N)cc2)c1=O` [Example 327, methyl 4-amino-1-(4-aminophenyl)-2-oxo-7-(difluoromethyl)-1,2-dihydro quinoline-3-carboxylate] was tested. Which IC50 did it give?
Answer: The IC50 was 1.25 nM.

Question: With `COC(=O)c1c(N)c2ccc(C3CC3)cc2n(-c2ccc(C(C)O)cc2)c1=O` (centres unmarked) [Example 328, methyl 4-amino-1-(4-(1-hydroxyethyl)phenyl)-2-oxo-7-cyclopropyl-1,2-dihydroquinoline-3-carboxylate] as the molecule, how does the IC50 read?
Answer: Its IC50 is 2.59 nM.

Question: With `COC(=O)c1c(N)c2ccc(C)cc2n(-c2ccc(C(C)O)cc2)c1=O` (centres unmarked) [Example 329, methyl 4-amino-1-(4-(1-hydroxyethyl)phenyl)-2-oxo-7-methyl-1,2-dihydroquinoline-3-carboxylate] as the molecule, how does the IC50 read?
Answer: The IC50 was 2.65 nM.

Question: With `CCOC(=O)c1c(N)c2ccc(C(F)(F)F)cc2n(-c2ccc([C@@H](C)O)cc2)c1=O` [Example 330, ethyl 4-amino-1-(4-(1-(R)-hydroxyethyl)phenyl)-2-oxo-7-(trifluoromethyl)-1,2-dihydroquinoline-3-carboxylate] as the molecule, how does the IC50 read?
Answer: Its IC50 is 0.92 nM.

Question: For `[2H]C([2H])([2H])OC(=O)c1c(N)c2ccc(C(F)(F)F)cc2n(-c2ccc(C(C)O)cc2)c1=O` (centres unmarked) [Example 331, methyl-d3 4-amino-1-(4-(1-hydroxyethyl)phenyl)-2-oxo-7-(trifluoromethyl)-1,2-dihydroquinolin-3-carboxylate], which IC50 is on record?
Answer: The IC50 was 2.49 nM.

Question: With `COC(=O)c1c(N)c2ccc(Br)nc2n(-c2ccc(C(C)O)nc2)c1=O` (centres unmarked) [Example 332, methyl 4-amino-7-bromo-1-(6-(1-hydroxyethyl)pyridin-3-yl)-2-oxo-1,2-dihydro-1,8-naphthyridine-3-carboxylate] as the molecule, how does the IC50 read?
Answer: Its IC50 is 2.28 nM.

Question: `COC(=O)c1c(N)c2ccc(OC(F)F)cc2n(-c2ccc(C(C)O)cc2)c1=O` (centres unmarked) [Example 335, methyl 4-amino-7-(difluoromethoxy)-1-(4-(1-hydroxyethyl)phenyl)-2-oxo-1,2-dihydroquinoline-3-carboxylate] was tested. Which IC50 did it give?
Answer: The IC50 was 2.06 nM.

Question: With `COC(=O)c1c(N)c2ccc(C(F)F)cc2n(-c2ccc(C(C)O)cc2)c1=O` (centres unmarked) [Example 336, methyl 4-amino-7-(difluoromethyl)-1-(4-(1-hydroxyethyl)phenyl)-2-oxo-1,2-dihydroquinoline-3-carboxylate] as the molecule, how does the IC50 read?
Answer: The IC50 was 1.94 nM.

Question: `COC(=O)c1c(N)c2ccc(Br)c(F)c2n(-c2ccc(N)cc2)c1=O` [Example 338, methyl 4-amino-1-(4-aminophenyl)-7-bromo-8-fluoro-2-oxo-1,2-dihydroquinoline-3-carboxylate] was tested. Which IC50 did it give?
Answer: Its IC50 is 1.45 nM.

Question: `COC(=O)c1c(N)c2c(F)cc(Br)cc2n(-c2ccc(N)cc2)c1=O` [Example 339, methyl 4-amino-1-(4-aminophenyl)-7-bromo-5-fluoro-2-oxo-1,2-dihydroquinoline-3-carboxylate] was tested. Which IC50 did it give?
Answer: The IC50 was 2.3 nM.

Question: For `COC(=O)c1c(N)c2ccc(C)nc2n(-c2ccc([C@@H](C)O)cc2)c1=O` [Example 343, methyl 4-amino-(1-(4-(1R)-1-hydroxyethyl)phenyl)-7-methyl-2-oxo-pyrido[2,3-b]pyridin-3-carboxylate], which IC50 is on record?
Answer: Its IC50 is 2.39 nM.

Question: For `COC(=O)c1c(N)c2ccc(C(F)(F)F)nc2n(-c2ccc([C@@H](C)O)cc2)c1=O` [Example 348, methyl 4-amino-(1-(4-(1R)-1-hydroxyethyl)phenyl)-7-(trifluoromethyl)-2-oxo-pyrido[2,3-b]pyridin-3-carboxylate], which IC50 is on record?
Answer: Its IC50 is 1.33 nM.

Question: How did the IC50 turn out when `[2H]C([2H])([2H])OC(=O)c1c(N)c2ccc(Br)cc2n(-c2ccc([C@@H](C)O)cc2)c1=O` [Example 351, methyl-d3 (R)-4-amino-7-bromo-1-(4-(1-hydroxyethyl)phenyl)-2-oxo-1,2-dihydroquinolin-3-carboxylate] was run?
Answer: Its IC50 is 1.05 nM.

Question: How did the IC50 turn out when `COC(=O)c1c(N)c2ccc(Br)cc2n(-c2ccc(C(C)O)nc2)c1=O` (centres unmarked) [Example 352, methyl 4-amino-7-bromo-1-(6-(1-hydroxyethyl)pyridin-3-yl)-2-oxo-1,2-dihydroquinoline-3-carboxylate] was run?
Answer: Its IC50 is 2.58 nM.

Question: For `COC(=O)c1c(N)c2ccc(C3CC3)cc2n(-c2ccc([C@@H](C)O)cc2)c1=O` [Example 353, methyl 4-amino-(1-(4-(1R)-1-hydroxyethyl)phenyl)-7-cyclopropyl-2-oxo-1,2-dihydroquinoline-3-carboxylate], which IC50 is on record?
Answer: Its IC50 is 1.25 nM.

Question: Which IC50 does the source give for `COC(=O)c1c(N)c2ccc(OC(F)F)cc2n(-c2ccc([C@@H](C)O)cc2)c1=O` [Example 354, methyl (R)-4-amino-7-(difluoromethoxy)-1-(4-(1-hydroxyethyl)phenyl)-2-oxo-1,2-dihydroquinoline-3-carboxylate] here?
Answer: The IC50 was 0.46 nM.

Question: Which IC50 does the source give for `COC(=O)c1c(N)c2ccc(C(F)F)cc2n(-c2ccc([C@@H](C)O)cc2)c1=O` [Example 357, methyl (R)-4-amino-7-(difluoromethyl)-1-(4-(1-hydroxyethyl)phenyl)-2-oxo-1,2-dihydroquinoline-3-carboxylate] here?
Answer: The IC50 was 0.54 nM.
